Results: US20260374766A1, “METHODS FOR TREATING CANCER” (Antares Therapeutics, Inc., priority 2022, published 2026)
pIC50, pKd: −log10 of the molar value. Like-named read-outs stand apart in the source and are kept apart here.

Tests used:
p53 Y220C = p53 Y220C (Homo sapiens, UniProt P04637, Y220C); test: Luciferase Reporter Assay (Luc), p53 response element, NClH1299 cells with inducible p53 Y220C; format: cell-based; details: luciferase reporter, NClH1299 inducible p53 Y220C, 6 hour; for AC50: read-out: Luc P53 Y220C AC50
How it was run: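 H1299 cells induced with 0.5 ug/mL doxycycline for 24 hours, then exposed to compound for 6 hours. p53 response-element luciferase read by One-Glo luminescence after 5 min shaking at room temperature.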

NUGC3 p53 Y220C = test: Cell Proliferation Assay (CellTiter-Glo, CTG), NUGC3 p53 Y220C; format: cell-based; details: Homo sapiens, NUGC-3, 120 h, NUGC3 cells, 5 days, CellTiter-Glo
How it was run: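 Tet-One inducible p53 Y220C or R273H constructs were stably introduced into NCI-H1299 by lentiviral transduction; NUGC3 was used as is. Cells (250-500 per well) were exposed to compound for 5 days, then CellTiter-Glo was added for 10 min at room temperature and IC50 was calculated from luminescence.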

H1299 p53 R273H = test: Cell Proliferation Assay (CellTiter-Glo, CTG), H1299 p53 R273H (NClH1299-inducible p53 R273H); format: cell-based; details: Homo sapiens, NCI-H1299, 120 h, NClH1299-inducible p53 R273H cells, 5 days, CellTiter-Glo
How it was run: (§1)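 NClH1299 lines stably transduced with Tet-inducible p53 Y220C or R273H, plus NUGC3, were treated with compound for 5 days at 250-500 cells/well. IC50 derived from CellTiter-Glo luminescent signal after 10 min room-temperature incubation.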

H1299 p53 Y220C = test: Cell Proliferation Assay (CellTiter-Glo, CTG), H1299 p53 Y220C (NClH1299-inducible p53 Y220C); format: cell-based; details: Homo sapiens, NCI-H1299, 120 h, NClH1299-inducible p53 Y220C cells, 5 days, CellTiter-Glo
How it was run: as §1

[1] = biological target: T1, p53 Y220C mutant protein (amino acid residues 94-293) (Homo sapiens, UniProt P04637, Y220C); test: Surface Plasmon Resonance (SPR) assay, Kd_kinetic; format: binding; details: read-out: SPR P53 Y220C KD kinetic
T1 construct: p53 Y220C mutant protein (amino acid residues 94-293)
T1 sequence (P04637 94-293, stated change not applied): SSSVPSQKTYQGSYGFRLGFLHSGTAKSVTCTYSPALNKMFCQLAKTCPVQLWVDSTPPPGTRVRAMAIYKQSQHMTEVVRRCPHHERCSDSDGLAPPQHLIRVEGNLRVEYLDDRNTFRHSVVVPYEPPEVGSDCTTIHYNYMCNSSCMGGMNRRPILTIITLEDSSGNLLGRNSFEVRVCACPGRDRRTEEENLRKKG
How it was run: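 Biacore 8K SPR; 16 or 20 °C; Tris 50 mM pH 7.5, NaCl 100 mM, DTT 1 mM, Brij35 0.01%, Tween-20 0.05%, DMSO 1%. Kd_kinetic by 1:1 fit.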

SMILES | AC50 (p53 Y220C) | Emax (p53 Y220C) | pIC50 (H1299 p53 R273H) | pIC50 (H1299 p53 Y220C) | pKd ([1]; SPR, p53 Y220C) | pKd [1] | pIC50 (NUGC3 p53 Y220C)
CN1CC[C@@H](Nc2cccn3c(SC(F)(F)F)c(C#CCNc4ccc(C(=O)NC[C@H]5CCO5)cc4)cc23)[C@@H](F)C1 [Example 382] | < 750 nM | > 90% | 5.00 to 5.10 | > 6.12 | > 8.00 | – | > 6.12
C[C@H](O)[C@H](C)NC(=O)c1ccc(NCC#Cc2cc3c(N[C@@H]4CCN(C)C[C@@H]4F)cccn3c2SC(F)(F)F)cc1 [Example 383] | < 750 nM | > 90% | 5.00 to 5.10 | > 6.12 | > 8.00 | – | > 6.12
CN1CC[C@@H](Nc2cccn3c(SC(F)(F)F)c(C#CCNc4ccc(C(=O)NC[C@@H](O)CO)cc4)cc23)[C@@H](F)C1 [Example 384] | < 750 nM | > 90% | ≤ 5.00 | > 6.12 | > 8.00 | – | > 6.12
CN1CC[C@@H](Nc2cccn3c(SC(F)(F)F)c(C#CCNc4ccc(P(C)(C)=O)cc4)cc23)[C@@H](F)C1 [Example 385] | < 750 nM | 80 to 90% | ≤ 5.00 | > 6.12 | > 8.00 | – | > 6.12
CNC(=O)c1ccc(NCC#Cc2cc3c(N[C@@H]4CN(C)C[C@@H]4F)cccn3c2SC(F)(F)F)c(OC)c1 [Example 386] | < 750 nM | > 90% | ≤ 5.00 | > 6.12 | > 8.00 | – | > 6.12
CN1CC[C@H](Nc2cccn3c(SC(F)(F)F)c(C#CCNc4ccc(P(C)(C)=O)c5scnc45)cc23)[C@H](F)C1 [Example 389, 7-(dimethylphosphoryl)-N-[3-(8-{[(3R,4S)-3-fluoro-1-methylpiperidin-4-yl]amino}-3-[(trifluoromethyl)sulfanyl]indolizin-2-yl)prop-2-yn-1-yl]-1,3-benzothiazol-4-amine; formic acid] | < 750 nM | > 90% | 5.00 to 5.10 | > 6.12 | – | > 8.00 | > 6.12
O=C(N[C@H]1C[C@@H](O)C1)c1ccc(NCC#Cc2cc3c(N[C@@H]4CCNC[C@@H]4F)cccn3c2SC(F)(F)F)cc1 [Example 391] | < 750 nM | 80 to 90% | ≤ 5.00 | > 6.12 | > 8.00 | – | > 6.12
CNC(=O)c1ccc(NCC#Cc2cc3c(N[C@@H]4CNC[C@@H]4F)cccn3c2SC(F)(F)F)c(OC)c1 [Example 392] | < 750 nM | 80 to 90% | ≤ 5.00 | > 6.12 | > 8.00 | – | > 6.12
C[C@H](NC(=O)c1ccc(NCC#Cc2cc3c(N[C@@H]4CCN(C)C[C@@H]4F)cccn3c2SC(F)(F)F)cc1)[C@@H](C)O [Example 396] | < 750 nM | > 90% | 5.00 to 5.10 | > 6.12 | > 8.00 | – | > 6.12
COc1cc(P(C)(C)=O)cnc1NCC#Cc1cc2c(N[C@@H]3CCN(C)C[C@@H]3F)cccn2c1SC(F)(F)F [Example 402, 2-(3-{[5-(dimethylphosphoryl)-3-methoxypyridin-2-yl]amino}prop-1-yn-1-yl)-N-[(3S,4R)-3-fluoro-1-methylpiperidin-4-yl]-3-[(trifluoromethyl)sulfanyl]indolizin-8-amine] | < 750 nM | 80 to 90% | ≤ 5.00 | > 6.12 | > 8.00 | – | > 6.12
C[C@H](O)CNC(=O)c1ccc(NCC#Cc2cc3c(N[C@@H]4CCNC[C@@H]4F)cccn3c2SC(F)(F)F)cc1 [Example 403] | < 750 nM | > 90% | ≤ 5.00 | > 6.12 | > 8.00 | – | > 6.12
COc1ccc(C(=O)NC[C@H](C)O)cc1NCC#Cc1cc2c(N[C@@H]3CCN(C)C[C@@H]3F)cccn2c1SC(F)(F)F [Example 404] | < 750 nM | > 90% | 5.00 to 5.10 | > 6.12 | > 8.00 | – | > 6.12
CNC(=O)c1ccc(NCC#Cc2cc3c(N[C@@H]4CCN(C)C[C@@H]4F)cccn3c2SC(F)(F)F)c(OC2COC2)c1 [Example 405] | < 750 nM | > 90% | ≤ 5.00 | > 6.12 | > 8.00 | – | > 6.12
CN1CC[C@@H](Nc2cccn3c(SC(F)(F)F)c(C#CCNc4cc(C(=O)NCC5(O)CC5)ccc4OC4COC4)cc23)[C@@H](F)C1 [Example 409] | < 750 nM | > 90% | ≤ 5.00 | > 6.12 | > 8.00 | – | > 6.12

More lines, main results first:

AC50 (p53 Y220C) | Emax (p53 Y220C) | pIC50 (H1299 p53 R273H) | pIC50 (H1299 p53 Y220C) | pKd ([1]; SPR, p53 Y220C) | pKd [1] | SMILES | pIC50 (NUGC3 p53 Y220C)
< 750 nM | 80 to 90% | 5.10 to 5.30 | > 6.12 | > 8.00 | – | CN1CCO[C@@H](CNC(=O)c2ccc(NCC#Cc3cc4c(N[C@@H]5CCN(C)C[C@@H]5F)cccn4c3SC(F)(F)F)cc2)C1 [Example 380] | > 6.12
< 750 nM | > 90% | 5.00 to 5.10 | > 6.12 | > 8.00 | – | CNC(=O)c1ccc(OC)c(NCC#Cc2cn3c(N[C@@H]4CCNC[C@@H]4F)cccc3c2SC(F)(F)F)c1 [Example 381] | > 6.12
< 750 nM | 80 to 90% | 5.10 to 5.30 | > 6.12 | > 8.00 | – | COc1cc(C(=O)NCC2(O)CC2)ccc1NCC#Cc1cc2c(N[C@@H]3CCNC[C@@H]3F)cccn2c1SC(F)(F)F [Example 387] | > 6.12
< 750 nM | 80 to 90% | 5.10 to 5.30 | > 6.12 | > 8.00 | – | CN1CCO[C@H](CNC(=O)c2ccc(NCC#Cc3cc4c(N[C@@H]5CCN(C)C[C@@H]5F)cccn4c3SC(F)(F)F)cc2)C1 [Example 388] | > 6.12
< 750 nM | > 90% | 5.10 to 5.30 | > 6.12 | > 8.00 | – | COc1nc(P(C)(C)=O)ccc1NCC#Cc1cc2c(N[C@@H]3CCN(C)C[C@@H]3F)cccn2c1SC(F)(F)F [Example 390] | > 6.12
< 750 nM | > 90% | 5.10 to 5.30 | > 6.12 | > 8.00 | – | CNC(=O)c1ccc(OC)c(NCC#Cc2cn3c(N[C@@H]4CCN(C)C[C@@H]4F)cccc3c2SC(F)(F)F)c1 [Example 393] | > 6.12
< 750 nM | > 90% | 5.10 to 5.30 | > 6.12 | > 8.00 | – | COc1cc(S(C)(=O)=O)ccc1NCC#Cc1cc2c(N[C@@H]3CCNC[C@@H]3F)cccn2c1SC(F)F [Example 394] | > 6.12
< 750 nM | > 90% | 5.10 to 5.30 | > 6.12 | > 8.00 | – | CN1CC[C@@H](Nc2cccn3c(SC(F)(F)F)c(C#CCNc4ccc(C(=O)N5CC(C)(O)C5)cc4)cc23)[C@@H](F)C1 [Example 395] | > 6.12
< 750 nM | > 90% | 5.10 to 5.30 | > 6.12 | > 8.00 | – | C[C@@H](O)CNC(=O)c1ccc(NCC#Cc2cc3c(N[C@@H]4CCNC[C@@H]4F)cccn3c2SC(F)(F)F)cc1 [Example 397] | > 6.12
< 750 nM | > 90% | 5.10 to 5.30 | > 6.12 | > 8.00 | – | COc1cc2c(cc1NCC#Cc1cc3c(N[C@@H]4CCN(C)C[C@@H]4F)cccn3c1SC(F)(F)F)CNC2=O [Example 399] | > 6.12
< 750 nM | 80 to 90% | 5.10 to 5.30 | > 6.12 | > 8.00 | – | COc1cc(C(=O)N2CC(C)(O)C2)ccc1NCC#Cc1cc2c(N[C@@H]3CCNC[C@@H]3F)cccn2c1SC(F)(F)F [Example 406, 1-(4-{[3-(8-{[(3S,4R)-3-fluoropiperidin-4-yl]amino}-3-[(trifluoromethyl)sulfanyl]indolizin-2-yl)prop-2-yn-1-yl]amino}-3-methoxybenzoyl)-3-methylazetidin-3-ol] | > 6.12
< 750 nM | > 90% | 5.10 to 5.30 | > 6.12 | > 8.00 | – | CN1CC[C@@H](Nc2cccn3c(SC(F)(F)F)c(C#CCNc4ccc(C(=O)NC[C@H]5COCCO5)cc4)cc23)[C@@H](F)C1 [Example 407] | > 6.12
< 750 nM | 80 to 90% | 5.10 to 5.30 | > 6.12 | > 8.00 | – | COc1cc(C(=O)NCC(C)(C)O)ccc1NCC#Cc1cc2c(N[C@@H]3CCNC[C@@H]3F)cccn2c1SC(F)(F)F [Example 408] | > 6.12
